Patent publication US6495699B2, “Metalloproteinase inhibitors, pharmaceutical compositions containing them, and their use” (Agouron Pharmaceuticals Inc., priority 1996, dated 2002)
pKi: −log10 of the molar value.

Assays:
[1] = molecular target: T1, catalytic domain of human stromelysin (Hsln) (Homo sapiens, UniProt P08254); assay: Fluorometric MCA-peptide hydrolysis assay, stromelysin (Hsln); format: biochemical; settings: apparent Ki; 10 μM MCA peptide substrate, 37° C., pH 7.5; read-out: Hsln (Ki,app)
T1 construct: The catalytic domain of human stromelysin (Hsln) was obtained by expression and purification of a C-terminally truncated prostromelysin-1; made in house; host or cells: E. coli BL21
Method in brief: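 APMA-activated E. coli–expressed catalytic domain, with 10 μM MCA-Pro-Leu-Gly-Leu-DPA-Ala-Arg-NH2 at 37 °C. Buffer was pH 7.5 Tricine with NaCl, CaCl2, zinc acetate and 2% final DMSO; fluorescence read at ex 328/em 393 nm over 60 min. Ki,app from steady-state rates fitted to competitive or Morrison tight-binding equations.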

[2] = Determination of inhibitor concentration in plasma after oral dosing; format: in vivo, Sprague Dawley rats; settings: Sprague-Dawley, rat plasma, dose 50 mg/kg, vehicle B (60% aq. propylene glycol)
Description: The dosing solution consisted of the inhibitor dissolved in either a molar equivalent of HCl in water (vehicle A), in 60% aq. propylene glycol (vehicle B), or in 2.8 mg/mL sodium bicarbonate in 60% aqueous propylene glycol (vehicle C), yielding a final concentration that ranged from 10-15 mg/ml. Sprague Dawley rats (Hilltop Lab Animals, Scottsdale, Pa.) were dosed as a function of drug weight per body weight, usually 50 mgper kg. Blood was taken from the rats and centrifuged, and the plasma was stored in the freezer. Drug was extracted from a 50 μl plasma aliquot by adding 1 ml of acetonitrile, shaking for 2 minutes, centrifuging for 15 minutes at 4000 rpm, collecting the supernatant, and then evaporating it to dryness under a stream of nitrogen. The samples were reconstituted with 130 μl of mobile phase, shook for 2 minutes, and centrifuged for 15 minutes at 4000 rpm. The supernatant was collected and the samples were analyzed by injecting 100 μl of supernatant onto HPLC.
Quantitation of drug levels was accomplished by generating a standard curve of known drug amounts that were extracted from added plasma. Drug levels were plotted as a function of time and analyzed to provide area under the curve (AUC) and maximum concentration (Cmax) values.

[3] = molecular target: T2, human progelatinase A (GelA), catalytic and fibronectin-like portion (Homo sapiens, UniProt P08253); assay: Fluorometric MCA-peptide hydrolysis assay, gelatinase A (GelA); format: biochemical; settings: apparent Ki; 10 μM MCA peptide substrate, 37° C., pH 7.5
T2 construct: The catalytic and fibronectin-like portion of human progelatinase A (GelA) was expressed as a fusion protein with ubiquitin; ubiquitin; made in house; host or cells: E. coli
Method in brief: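 E. coli-expressed ubiquitin fusion of human proGelA catalytic plus fibronectin-like domains, autoactivated; 10 μM MCA-Pro-Leu-Gly-Leu-DPA-Ala-Arg-NH2, pH 7.5 Tricine/NaCl/CaCl2/Zn buffer, 2% DMSO, 37° C, 60 min. Fluorescence 328/393 nm; steady-state rates fitted to competitive inhibition or Morrison tight-binding equation giving Ki,app (≈Ki since [S]<<Km).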

LogP = format: physicochemical
[4] = molecular target: T3, human collagenase-3 (Coll3) (Homo sapiens, UniProt P45452); assay: Fluorometric MCA-peptide hydrolysis assay, collagenase-3 (Coll3); format: biochemical; settings: apparent Ki; 10 μM MCA peptide substrate, 37° C., pH 7.5; read-out: Coll3 (Ki,app)
T3 construct: the catalytic domain was liberated by treatment with 2 mM APMA at room temperature overnight; ubiquitin (N, cleaved yes); made in house; host or cells: E. coli

T1 sequence (P08254 100-272 limits assumed): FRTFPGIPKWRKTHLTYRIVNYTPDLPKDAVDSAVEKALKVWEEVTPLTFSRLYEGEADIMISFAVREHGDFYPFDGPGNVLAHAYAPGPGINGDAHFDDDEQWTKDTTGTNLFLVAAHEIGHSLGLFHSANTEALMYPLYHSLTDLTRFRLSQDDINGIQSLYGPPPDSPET
T2 sequence (P08253 110-465 limits assumed): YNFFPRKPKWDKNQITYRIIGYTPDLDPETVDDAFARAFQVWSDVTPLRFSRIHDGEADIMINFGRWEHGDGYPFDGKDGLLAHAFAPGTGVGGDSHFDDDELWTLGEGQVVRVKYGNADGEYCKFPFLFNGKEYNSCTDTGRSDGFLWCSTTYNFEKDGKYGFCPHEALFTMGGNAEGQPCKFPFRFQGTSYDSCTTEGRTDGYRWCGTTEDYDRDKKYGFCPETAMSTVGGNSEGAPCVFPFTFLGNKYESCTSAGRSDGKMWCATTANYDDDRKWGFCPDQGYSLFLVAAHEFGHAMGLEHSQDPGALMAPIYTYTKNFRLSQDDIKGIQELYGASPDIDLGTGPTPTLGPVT

CNC(=O)[C@@H](NC(=O)[C@@H](CC(=O)O)n1ccc(-c2ccc(-c3ccc(C#N)cc3)cc2)c1)C(C)(C)C [Example 5(c), 3(R)-[3-(4′-Cyanobiphenyl-4-yl)-1H-pyrrol-1-yl]-N-[2,2-dimethyl-1(S)-(methylcarbamoyl)propyl]succinamic Acid]
pKi [1]: 8.82 | AUC [2]: 1220 ng·h/mL | Cmax [2]: 410 ng/mL | GelA (Ki,app) [3]: 0.041 nM | logP (LogP): 3.41 | melting point: 142 to 144 °C | pKi [4]: 10.31
